Experimental data: patent US4446129A, “Method for treatment of arthrosis deformans with elastase” (Eisai Co., Ltd., priority 1982, dated 1984)
“Also recorded” adds a separate entry of the source.

How the values were obtained:
[1] = test system: Wistar strain female and male rats; test: Subacute toxicity, rats; assay type: in vivo, rat; conditions: oral, 750, 7,500 and 37,500 or 75,000 EL. U/kg/day for 4 weeks
Description: (§1) Elastase was orally administered to Wistar strain female and male rats at dosages of 750, 7,500 and 37,500 or 75,000 EL. U/kg/day for 4 weeks, and to female and male beagle dogs at dosages of 900 or 4,500 EL. U/kg/day for 12 weeks.

[2] = test system: female and male beagle dogs; test: Subacute toxicity, dogs; assay type: in vivo, dog; conditions: oral, 900 or 4,500 EL. U/kg/day for 12 weeks
Description: as §1

[3] = test system: Wistar strain female and male rats; test: Chronic toxicity, rats; assay type: in vivo, rat; conditions: oral, 2,250, 5,700, 11,250 or 22,500 EL. U/kg/day for 24 weeks
Description: Elastase was orally administered to Wistar strain female and male rats at dosages of 2,250, 5,700, 11,250 or 22,500 EL. U/kg/day for 24 weeks.

[4] = test system: pregnant mice; test: Teratogenicity, mice; assay type: in vivo, mouse; conditions: oral, 750, 7,500 or 75,000 EL. U/kg/day, 6 days
Description: (§2) Elastase was forcibly orally administered to pregnant mice and rats in the stage of organogenesis at dosages of 750, 7,500 or 75,000 EL. U/kg/day for 6 consecutive days. As a result, death, hindrance to growth and teratogenesis of the embryos were not observed, and there was no effect upon the morphological and functional differentiation of the newborn animals.

[5] = test system: pregnant rats; test: Teratogenicity, rats; assay type: in vivo, rat; conditions: oral, 750, 7,500 or 75,000 EL. U/kg/day, 6 days
Description: as §2

[6] = test system: gonarthralgia; test: Clinical examples: effectiveness against gonarthralgia; assay type: in vivo, human
Description: The subjects included 18 patients (men 6 cases, women 12 cases, ages 57 to 88, average 70.9±8.2 years old) that were diagnosed negative as to rheumatoid arthrosis and were clinically diagnosed as suffering from gonarthrosis deformans. […] The distribution of the duration of gonarthralgia in the patients from the onset thereof was such that six cases fell into each of the periods of (1) three years or shorter, (2) four to five years, and (3) five years or longer.
The effectiveness of elastase against gonarthrosis deformans was evaluated by administering capsules containing 1,800 EL.U elastase at a daily dosage of 3 capsules per day to each patient for 8 weeks, and investigating the severity of gonarthralgia before administration, 4 weeks after administration, and 8 weeks after administration.
However, these patients had received and continued to receive during the test period antihypertensive agents, agents for improving cerebral circulation and other drugs for the treatment of their underlying diseases. However, the levels of these drugs in the patients' bodies remained unchanged from the day 8 weeks before the start of the test up to the last day of the test. During the tests, no patient received any other antiinflammatory, analgesic or steroid having the possible effect of palliation of arthralgia.

[7] = duration 3 years or shorter, 4 w
[8] = duration 3 years or shorter, 8 w
[9] = duration 5 years or longer, 4 w
[10] = duration 5 years or longer, 8 w

With “elastase: enzyme which specifically decomposes elastin, a water-insoluble scleroprotein; industrially produced by extraction from swine pancreas” the “Subacute toxicity: general physical condition, blood and urinary tests, morphological observations” value [1] was “no noteworthy anomalous findings”, the “Subacute toxicity: general physical condition, blood and urinary tests, morphological observations” value [2] was “no noteworthy anomalous findings” and the “Chronic toxicity: general physical condition, blood and urinary tests, morphological observations” value [3] was “no anomalous findings”. The “effect upon morphological and functional differentiation of the newborn animals” value [4] was “no effect”, the “death, hindrance to growth and teratogenesis of the embryos” value ([4]; organogenesis) was “not observed” and the “effect upon morphological and functional differentiation of the newborn animals” value [5] was “no effect”. For the same substance, the “death, hindrance to growth and teratogenesis of the embryos” value ([5]; organogenesis) was “not observed”, the “"ineffective" result, number” value ([6]; 4 to 5 year group) was “one” and the “"ineffective" result, number” value ([6]; 5 years or longer group) was “one”. The “result (case history)” value ([6]; Case 4, Case 8, Case 16, Case 13) was “markedly effective; also recorded: ineffective (when there was no effect)”, the “pain in knee joints when administration was discontinued” value ([6]; Case 9) was “worsened” and the “gonarthralgia after restart of administration” value ([6]; Case 9, restarted at beginning of third week) was “palliation of gonarthralgia”. The “improvement, case history” value ([6]; Case 13, after either 4 weeks or 8 weeks) was “no improvement was recognized”, the “difficulty with Japanese dancing, case history” value ([6]; Case 16, after 4 weeks) was “disappeared” and the “knee pain, case history” value ([6]; after 4 weeks, Case 4, Case 8, Case 16) was “completely cleared up; also recorded: disappeared entirely”. The “gonarthralgia in cases with other symptoms” value ([6]; all of these cases) was “palliated or cleared up”, the “aggravated, number of cases” value [6, 7] was 0 and the “effective, number of cases” value [6, 7] was 3. For the same substance, the “ineffective, number of cases” value [6, 7] was 0, the “markedly effective, number of cases” value [6, 7] was 3 and the rate of effectiveness [6, 7] was 100%. The “rate of effectiveness (cases/total)” value [6, 7] was 6/6, the “aggravated, number of cases” value [6, 8] was 0 and the “effective, number of cases” value [6, 8] was 3. The “ineffective, number of cases” value [6, 8] was 0, the “markedly effective, number of cases” value [6, 8] was 3 and the rate of effectiveness [6, 8] was 100%. The “rate of effectiveness (cases/total)” value [6, 8] was 6/6, the “aggravated, number of cases” value ([6]; duration 4 to 5 years, 4 w) was 0 and the “effective, number of cases” value ([6]; duration 4 to 5 years, 4 w) was 3. For the same substance, the “ineffective, number of cases” value ([6]; duration 4 to 5 years, 4 w) was 1, the “markedly effective, number of cases” value ([6]; duration 4 to 5 years, 4 w) was 2 and the rate of effectiveness ([6]; duration 4 to 5 years, 4 w) was 83.3%. For the same substance, the “rate of effectiveness (cases/total)” value ([6]; duration 4 to 5 years, 4 w) was 5/6, the “aggravated, number of cases” value ([6]; duration 4 to 5 years, 8 w) was 0 and the “effective, number of cases” value ([6]; duration 4 to 5 years, 8 w) was 2. The “ineffective, number of cases” value ([6]; duration 4 to 5 years, 8 w) was 1, the “markedly effective, number of cases” value ([6]; duration 4 to 5 years, 8 w) was 3 and the rate of effectiveness ([6]; duration 4 to 5 years, 8 w) was 83.3%. For the same substance, the “rate of effectiveness (cases/total)” value ([6]; duration 4 to 5 years, 8 w) was 5/6, the “aggravated, number of cases” value [6, 9] was 0 and the “effective, number of cases” value [6, 9] was 4. The “ineffective, number of cases” value [6, 9] was 1, the “markedly effective, number of cases” value [6, 9] was 1 and the rate of effectiveness [6, 9] was 83.3%. For the same substance, the “rate of effectiveness (cases/total)” value [6, 9] was 5/6, the “aggravated, number of cases” value [6, 10] was 0 and the “effective, number of cases” value [6, 10] was 3. The “ineffective, number of cases” value [6, 10] was 1, the “markedly effective, number of cases” value [6, 10] was 2 and the rate of effectiveness [6, 10] was 83.3%. For the same substance, the “rate of effectiveness (cases/total)” value [6, 10] was 5/6.
